According to US11788092B2, “Recombinant microorganisms and uses therefor” (LanzaTech, Inc., priority 2021, dated 2023):
Values after ≈ are worked out from the molar mass of the structure shown.

Assays:
Synechococcus elongatus = details: Begemann et al. 2013; cited from earlier work
[1] = system: C. autoethanogenum strain with aldehyde::ferredoxin oxidoreductase (AOR) enzymes deleted; assay: 3-HP challenge experiment, autotrophic growth in Schott bottles; type: cell-based, Clostridium autoethanogenum
Method: FIGS. 2A-2B show autotrophic growth of Clostridium autoethanogenum Δaor strain in the presence of different amounts of 3-hydroxypropionic acid (at 0, 0.2, 0.5, 1, 2, 5 and 10 g/L) in Schott bottles. FIG. 2A: Growth profile; FIG. 2B: Peak Biomass. Unc=Unchallenged; N=2; Error bar=S.D.
To study the toxicity of 3-HP on autotrophic growth of C. autoethanogenum, a 3-HP challenge experiment (at 0, 0.2, 0.5, 1, 2, 5 and 10 g/L) was conducted in Schott bottles with synthetic gas blend (50% CO, 10% H2, 30% CO2 and 10% N2) using a strain with aldehyde::ferredoxin oxidoreductase (AOR) enzymes deleted (FIG. 2). […] Unc=Unchallenged; N=2; Error bar=S.D.

O=C(O)CCO [Strain 3-HP, 3-Hydroxypropionate]
minimal inhibitory concentration (Synechococcus elongatus): 180 µg/mL (≈ 2000 µM)
effect on growth rate ([1]; 5 g/L 3-HP): reduced the growth rate
reduction of peak OD600 nm vs unchallenged culture ([1]; 5 g/L 3-HP, synthetic gas blend 50% CO, 10% H2, 30% CO2, 10% N2, N=2): 22%
effect on growth rate ([1]; 10 g/L 3-HP): more pronounced decrease in growth rate
decrease in peak OD600 nm vs unchallenged culture ([1]; 10 g/L 3-HP, synthetic gas blend 50% CO, 10% H2, 30% CO2, 10% N2, N=2): 40%
